How the values were obtained:
[1] = target: T1, 3-hydroxy-3-methylglutaryl-coenzyme A reductase (Rattus norvegicus, UniProt P51639); experiment: Tested in vitro for the HMG-CoA reductase inhibitory activity in a microsomal preparation; format: microsomes, Microsome
T1 sequence (P51639 whole entry): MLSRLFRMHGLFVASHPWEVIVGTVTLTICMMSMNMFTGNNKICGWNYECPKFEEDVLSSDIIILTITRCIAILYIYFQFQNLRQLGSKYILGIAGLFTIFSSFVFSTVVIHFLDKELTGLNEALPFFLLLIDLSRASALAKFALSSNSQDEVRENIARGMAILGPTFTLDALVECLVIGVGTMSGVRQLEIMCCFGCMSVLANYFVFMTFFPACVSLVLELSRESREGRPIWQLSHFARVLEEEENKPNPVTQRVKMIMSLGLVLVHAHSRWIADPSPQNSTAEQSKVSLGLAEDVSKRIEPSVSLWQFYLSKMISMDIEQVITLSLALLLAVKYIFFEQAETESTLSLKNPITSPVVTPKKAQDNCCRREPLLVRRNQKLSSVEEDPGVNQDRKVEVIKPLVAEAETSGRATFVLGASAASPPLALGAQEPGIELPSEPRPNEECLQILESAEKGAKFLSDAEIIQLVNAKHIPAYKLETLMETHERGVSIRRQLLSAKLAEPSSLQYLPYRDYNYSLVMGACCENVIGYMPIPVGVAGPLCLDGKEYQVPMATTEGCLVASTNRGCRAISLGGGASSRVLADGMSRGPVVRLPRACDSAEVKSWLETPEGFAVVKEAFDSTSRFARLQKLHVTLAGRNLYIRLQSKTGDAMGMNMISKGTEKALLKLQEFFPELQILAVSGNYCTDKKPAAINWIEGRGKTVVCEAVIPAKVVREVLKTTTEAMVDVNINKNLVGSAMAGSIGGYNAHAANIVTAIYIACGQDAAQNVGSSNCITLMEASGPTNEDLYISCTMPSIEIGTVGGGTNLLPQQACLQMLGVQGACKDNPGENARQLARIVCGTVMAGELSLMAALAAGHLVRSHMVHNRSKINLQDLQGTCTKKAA

[2] = target: T2, 3-hydroxy-3-methylglutaryl-coenzyme A reductase (Rattus norvegicus) (UniProt P51639); experiment: Tested in vitro for relative potency against HMG-CoA reductase in a microsomal preparation (relative to compactin =1); format: microsomes; details: Microsome
T2 sequence (whole entry): T1 sequence (P51639 whole entry)

Rattus norvegicus [3] = experiment: Tested in vivo for the concentration required to produce 50% inhibition of the incorporation of [14C]acetate into cholesterol; format: functional
Rattus norvegicus [4] = experiment: Tested in vivo for the concentration required to produce relative potency of the incorporation of [14C]acetate into cholesterol (relative to compactin=1); format: functional

Row | IC50 [1] | Relative potency [2] | SMILES | ED50 (Rattus norvegicus [3]) | Relative potency (Rattus norvegicus [4])
1 | > 10 µM | < 0.1 | CCCCCCCCc1sc(C(C)C)c(/C=C/[C@@H](O)C[C@@H](O)CC(=O)O)c1-c1ccc(F)cc1 |  | 
2 | 0.049 µM | 23 | CC(C)c1sc(-c2ccccc2)c(-c2cccc(F)c2)c1/C=C/[C@@H](O)C[C@@H](O)CC(=O)O |  | 
3 | 0.015 µM | 77 | CC(C)=Cc1sc(C(C)C)c(/C=C/[C@@H](O)C[C@@H](O)CC(=O)[O-])c1-c1ccc(F)cc1.[Na+] | 0.11 mg/kg | 37
4 | 0.0097 µM | 119 | Cc1ccc(-c2sc(C(C)C)c(/C=C/[C@@H](O)C[C@@H](O)CC(=O)[O-])c2-c2ccc(F)cc2)cc1.[Na+] | 0.32 mg/kg | 13
5 | > 10 µM | < 0.1 | CCCCCCCCc1c(-c2ccccc2)sc(C(C)C)c1/C=C/[C@@H](O)C[C@@H](O)CC(=O)O |  | 
6 | 0.0063 µM | 183 | COc1ccc(-c2sc(C(C)C)c(/C=C/[C@@H](O)C[C@@H](O)CC(=O)[O-])c2-c2ccc(F)cc2)cc1.[Na+] | 0.15 mg/kg | 27
7 | > 10 µM | < 0.1 | CC(C)c1sc(-c2ccccc2)c(-c2ccc(-c3ccccc3)cc2)c1/C=C/[C@@H](O)C[C@@H](O)CC(=O)O |  | 
8 | 1.15 µM | 1 | CC[C@H](C)C(=O)O[C@H]1CCC=C2C=C[C@H](C)[C@H](CC[C@@H]3C[C@@H](O)CC(=O)O3)[C@H]21 [MEVASTATIN] | 4.02 mg/kg | 1
9 | 0.0044 µM | 261 | CC(C)c1sc(-c2ccccc2)c(-c2ccc(F)cc2)c1/C=C/[C@@H](O)C[C@@H](O)CC(=O)[O-].[Na+] | 0.11 mg/kg | 37
10 | 2.98 µM | 0.4 | CC(C)c1sc(-c2ccccc2)c(-c2cccc(C(F)(F)F)c2)c1/C=C/[C@@H](O)C[C@@H](O)CC(=O)O |  | 
11 | 1.42 µM | 0.8 | CC(C)c1sc(-c2ccccc2)c(-c2cccs2)c1/C=C/[C@@H](O)C[C@@H](O)CC(=O)O |  | 
12 | 0.325 µM | 4 | CC(C)c1sc(CO)c(-c2ccc(F)cc2)c1/C=C/[C@@H](O)C[C@@H](O)CC(=O)O |  | 
13 | 0.202 µM | 5.7 | CC(C)c1sc(-c2ccccc2)c(C2CCCCC2)c1/C=C/[C@@H](O)C[C@@H](O)CC(=O)[O-].[Na+] | 0.57 mg/kg | 7.1
14 | 0.57 µM | 2 | CC(C)c1sc(C2CCCC2)c(-c2ccc(F)cc2)c1/C=C/[C@@H](O)C[C@@H](O)CC(=O)O |  | 
15 | 0.026 µM | 44 | CC(C)c1sc(-c2ccccc2)c(-c2ccccc2)c1/C=C/[C@@H](O)C[C@@H](O)CC(=O)[O-].[Na+] | 0.17 mg/kg | 24
16 | 0.417 µM | 2.8 | CC(C)c1sc(-c2ccccc2)c(C2CCCC2)c1/C=C/[C@@H](O)C[C@@H](O)CC(=O)O |  | 
17 | 0.026 µM | 44 | CC(C)c1sc(C(C)C)c(-c2ccc(F)cc2)c1/C=C/[C@@H](O)C[C@@H](O)CC(=O)[O-].[Na+] | 0.08 mg/kg | 50
18 | 0.021 µM | 55 | CC(C)c1sc(-c2ccc(Cl)cc2)c(-c2ccc(F)cc2)c1/C=C/[C@@H](O)C[C@@H](O)CC(=O)[O-].[Na+] | 0.64 mg/kg | 6.3
19 | 0.233 µM | 4.9 | CC(C)c1sc(-c2ccccc2)c(-c2ccccc2F)c1/C=C/[C@@H](O)C[C@@H](O)CC(=O)O |  | 
20 | 0.094 µM | 12 | Cc1sc(C(C)C)c(/C=C/[C@@H](O)C[C@@H](O)CC(=O)[O-])c1-c1ccccc1.[Na+] | 0.19 mg/kg | 21
21 | 0.53 µM | 2.2 | CC[C@H](C)C(=O)O[C@H]1C[C@@H](C)C=C2C=C[C@H](C)[C@H](CC[C@@H]3C[C@@H](O)CC(=O)O3)[C@H]21 [LOVASTATIN] | 0.38 mg/kg | 11
22 | 0.206 µM | 5.6 | COCCOCc1sc(C(C)C)c(/C=C/[C@@H](O)C[C@@H](O)CC(=O)O)c1-c1ccc(F)cc1 |  | 
23 | 2.43 µM | 0.5 | COc1ccc(-c2c(-c3ccccc3)sc(C(C)C)c2/C=C/[C@@H](O)C[C@@H](O)CC(=O)O)cc1 |  | 
24 | 1 µM | 1.2 | CC(C)=Cc1c(-c2ccccc2)sc(C(C)C)c1/C=C/[C@@H](O)C[C@@H](O)CC(=O)O |  | 
